According to US20260294885A1, “TREATMENT OF INFLAMMATORY CONDITIONS COMPRISING IMU-856” (IMMUNIC AG, priority 2023, published 2026):
Entries after “also recorded” stand apart in the source; their conditions may differ. Like-named read-outs stand apart in the source and are kept apart here.

Tests used:
[1] = tested on: other members of the human SIRT protein family; assay: Selectivity over other members of the SIRT family; format: biochemical
DSS-induced colitis = assay: Therapeutic DSS-induced colitis mouse model (Example 3); format: in vivo, male C57BL/6 mice; details: 1 mg/kg per oral gavage once daily for 5 days from disease onset
Experimental: For this model, which is an often-used in vivo model for IBD, male C57BL/6 mice were treated with 2.8% DSS in drinking water for 5 days. Treatment with either vehicle (PEG400), 60 mg/kg sulfasalazine (positive control) or 1 mg/kg IMU-856 was given at disease onset (day 4 after start of DSS treatment) per oral gavage once daily for 5 days. Diarrhea score (normal consistency; soft; pasty, unshaped, not sticking to anus; diarrhea, sticking to anus; diarrhea with macroscopic bleeding) was assessed daily.
At the end of the study, mice were sacrificed and the colon was collected. Colon histology score consisting of an architecture score (0-3) and an infiltration score (0-3) was assessed based on hematoxylin and eosin-stained tissues slices.

[2] = Pharmacokinetics in celiac disease patients, Part C; format: in vivo, human; details: for Cmax at 192 h / Tmax at 192 h / AUC(0-t) at 192 h: human, in vivo, Day 8, mean; for AUC(0-t) at 192 h: read-out: AUC0-t last
Experimental: FIG. 1 illustrates the flow chart of part C in celiac disease (CelD) designed as proof-of-concept study with a gluten challenge trial. Part C was planned to include a well-controlled celiac disease patient population: The patients were 100% seronegative, indicating absence of ongoing substantial gluten exposure and was performed at sites in Australia and New Zealand. Part C was designed to assess safety, tolerability and pharmacokinetics of IMU-856 and measured also histologic changes, blood biomarkers, nutrient uptake and disease-related symptoms.

[3] = tested on: patients with celiac disease; assay: Nutrient absorption (vitamin B12, zinc, ferritin), Part C; format: in vivo, human; details: for increase in vitamin B12 levels: over the course of the trial; for mean increase in vitamin B12 levels / mean increase in zinc levels: baseline to Day 29
Experimental: In Part A, healthy subjects were randomised to single ascending doses of IMU-856 (10 mg to 160 mg) or placebo. In Part B healthy subjects were randomised to multiple once-daily doses of IMU-856 (40, 80, and 160 mg) or placebo for 14 days. Part C randomised patients with celiac disease who were on a gluten-free diet to multiple once-daily doses of IMU-856 (80 mg and 160 mg) or placebo for 28 days; a once-daily gluten challenge (6 g) was introduced on Day 14 and ended on Day 28. 71 healthy subjects were enrolled in Part A and B (N=19 placebo and N=52 IMU-856) and 43 patients with CelD in Part C (N=14 placebo; N=14 for 80 mg, and N=15 for 160 mg). In Parts A and B, treatment-emergent adverse events (TEAEs) occurred in 24 (73%) and 15 (79%) of subjects receiving any dose of IMU-856 compared to 6 (50%) and 5 (71%) with placebo, respectively. […] In Part C, the most common adverse events with any dose of IMU-856 by preferred term were headache (13 [45%]), nausea (9 [31%]), diarrhoea (8 [28%]), and abdominal distension (7 [24%]). […] In Part C, the mean change in villous height from baseline to Day 29 with 80 mg and 160 mg was −20.9±34.8 μm, and −22.5±51.1 μm, respectively, and −60.3±52.2 μm with placebo. […] Mean change in plasma citrulline increased with 80 mg and 160 mg from baseline to Day 14 (2.4±6.2 and 6.1±5.9 μmol/L, respectively) and from baseline to Day 29 (2.8±7.6 and 2.2±5.3 μmol/L, respectively), but not with placebo (−2.7±5.6 and −4.0±6.5 μmol/L). […] Mean increase in zinc levels from baseline to Day 29 with 80 mg and 160 mg were 0.3±1.4 and 0.9±2.1 μmol/L compared to a mean decrease in placebo (−0.9±2.1 μmol/L). Gluten-induced symptoms were also attenuated by IMU-856. […]

IL-2 = assay: Serum IL-2 release on gluten challenge, Part C; format: in vivo, human; details: first day of gluten challenge (Day 14)
Experimental: Also, biomarker response upon treatment of CelD with IMU-856 was assessed. […] A wide inter-individual range of IL-2 response leads to large SD, especially in the placebo group. The inter-individual variance regarding IL-2 response decreases with increasing dose levels as illustrated in FIG. 8 (N=39/43 included in IL-2 analysis set. 3 patients not included in this analysis due to early termination and 1 incomplete IL-2 sampling due to site error. Methods used for IL-2 analysis: Milliplex® Human High Sensitivity T Cell Magnetic Bead Panel, 3 plex (Luminex®) and Simoa® CorPlex™ Human IL-2 Kit (Quanterix)).
FIG. 8 illustrates the mean absolute change and maximum change in serum IL-2 (in pg/mL) from pre-gluten to 4 hours post-gluten on first day of gluten challenge (IL: interleukin; SD: standard deviation).

Cn1c(COc2cc(C(F)(F)F)ccn2)nnc1[C@H]1CC[C@H](c2cnn([C@H]3CC[C@H](N4CC5(CCO5)C4)CC3)c2)CC1 [IMU-856, 6-(trans-4-(4-(trans-4-(4-methyl-5-(((4-(trifluoromethyl)pyridin-2-yl)oxy)methyl)-4H-1,2,4-triazol-3-yl)cyclohexyl)-1H-pyrazol-1-yl)cyclohexyl)-1-oxa-6-azaspiro[3.3]heptane]
selectivity for SIRT6 over other SIRT family members [1]: highly selective for SIRT6
colon histology score (DSS-induced colitis): reduction in the histology score
diarrhea score (DSS-induced colitis): improvement of the diarrhea score which was similar or even better than the positive control
achievement of steady state ([2]; Part C): fast achievement of steady state
dose linearity of plasma Cmax and AUC ([2]; Part C): linear pharmacokinetics with dose-proportional increase
mean trough levels / exposure over dosing period ([2]; Part C): constant exposure within the whole dosing period
Cmax at 192 h ([2]; IMU-856 80 mg): 354 ng/mL
Tmax at 192 h ([2]; IMU-856 80 mg): 1.9 h
AUC(0-t) at 192 h ([2]; IMU-856 80 mg): 1570 ng·h/mL
Cmax at 192 h ([2]; IMU-856 160 mg): 766 ng/mL
Tmax at 192 h ([2]; IMU-856 160 mg): 1.5 h
AUC(0-t) at 192 h ([2]; IMU-856 160 mg): 3610 ng·h/mL
increase in vitamin B12 levels ([3]; 80 mg (N=11)): 45.8 pmol/L
mean increase in vitamin B12 levels ([3]; 80 mg): 45.8 ± 94.4 pmol/L
mean increase in zinc levels ([3]; 80 mg): 0.3 ± 1.4 µmol/L
increase in vitamin B12 levels ([3]; 160 mg (N=13)): 74.2 pmol/L
mean increase in vitamin B12 levels ([3]; 160 mg): 74.2 ± 99.9 pmol/L
mean increase in zinc levels ([3]; 160 mg): 0.9 ± 2.1 µmol/L
gluten-induced iron malabsorption (ferritin levels) ([3]; Baseline to Day 29): ameliorates the gluten-induced iron malabsorption; also recorded: decreased to a lesser extent
nutrient absorption (vitamin B12) ([3]; in words): enhances nutrient absorption in a dose-dependent manner
nutrient absorption (zinc) ([3]; in words): enhances nutrient absorption in a dose-dependent manner; also recorded: A similar responses to treatment was observed for zinc
gluten-induced acute immune response, IL-2 release (IL-2): dampens gluten-induced acute immune response, as measured by IL-2 release, in a dose-dependent fashion; also recorded: dose-dependent lessening of acute immune response
